How the values were obtained:
Setaria viridis = assay: Post-emergence herbicidal activity test (stem and leaf spray, pot culture); assay type: in vivo; settings: 3 weeks after spraying
In short: (§1)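 Activity is given as a 0–5 grade of fresh weight growth control, scored three weeks after a single stem-and-leaf spray. Weeds in farmland loam were treated at the 2- to 3-leaf stage at 10, 5 and 2.5 g/mu, with methyl oleate added as synergist.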

Amaranthus retroflexus = assay: as above; assay type: in vivo; settings: 3 weeks after spraying
In short: as §1

Echinochloa crusgalli = assay: as above; assay type: in vivo; settings: 3 weeks after spraying
In short: as §1

Abutilon theophrasti = assay: as above; assay type: in vivo; settings: 3 weeks after spraying
In short: as §1

Portulaca oleracea = assay: as above; assay type: in vivo; settings: 3 weeks after spraying
In short: as §1

Trifoliumre pensL. = assay: as above; assay type: in vivo; settings: 3 weeks after spraying
In short: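 Rates of 10, 5 and 2.5 g/mu were applied in a single spray-tower treatment to 2–3-leaf plants, thinned to 10 per pot. Formulation: acetone solution, Tween 80, 1.5 L/ha methyl oleate synergist. Weed response assessed after 3 further greenhouse weeks; mean of three experiments.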

| SMILES | Post-emergence herbicidal activity, S. viridis (grade) (Setaria viridis; dosage 10 g/mu) | Post-emergence herbicidal activity, A. retroflexus (grade) (Amaranthus retroflexus; dosage 10 g/mu) | Post-emergence herbicidal activity, E. crusgalli (grade) (Echinochloa crusgalli; dosage 10 g/mu) | Post-emergence herbicidal activity, A. theophrasti (grade) (Abutilon theophrasti; dosage 10 g/mu) | Post-emergence herbicidal activity, P. oleracea (grade) (Portulaca oleracea; dosage 10 g/mu) | Post-emergence herbicidal activity, Trifoliumre pensL. (grade) (Trifoliumre pensL.; dosage 10 g/mu) | melting point [°C] | Post-emergence herbicidal activity, S. viridis (grade) (Setaria viridis; dosage 2.5 g/mu) | Post-emergence herbicidal activity, S. viridis (grade) (Setaria viridis; dosage 5 g/mu) | Post-emergence herbicidal activity, A. retroflexus (grade) (Amaranthus retroflexus; dosage 2.5 g/mu) | Post-emergence herbicidal activity, A. retroflexus (grade) (Amaranthus retroflexus; dosage 5 g/mu) | Post-emergence herbicidal activity, E. crusgalli (grade) (Echinochloa crusgalli; dosage 2.5 g/mu) | Post-emergence herbicidal activity, E. crusgalli (grade) (Echinochloa crusgalli; dosage 5 g/mu) | Post-emergence herbicidal activity, A. theophrasti (grade) (Abutilon theophrasti; dosage 2.5 g/mu) | Post-emergence herbicidal activity, A. theophrasti (grade) (Abutilon theophrasti; dosage 5 g/mu) | Post-emergence herbicidal activity, P. oleracea (grade) (Portulaca oleracea; dosage 2.5 g/mu) | Post-emergence herbicidal activity, P. oleracea (grade) (Portulaca oleracea; dosage 5 g/mu) | Post-emergence herbicidal activity, Trifoliumre pensL. (grade) (Trifoliumre pensL.; dosage 2.5 g/mu) | Post-emergence herbicidal activity, Trifoliumre pensL. (grade) (Trifoliumre pensL.; dosage 5 g/mu) |
| --- | --- | --- | --- | --- | --- | --- | --- | --- | --- | --- | --- | --- | --- | --- | --- | --- | --- | --- | --- |
| O=C(Nc1cc(N2C(=O)C3=C(CCCC3)C2=O)c(F)cc1Cl)C1CC1 [Compound D8, N-(2-chloro-5-(1,3-dioxo-1,3,4,5,6,7-hexahydro-2H-isoindole-2-yl)-4-fluorophenyl)cyclopropanecarboxamide] | 3 (Grade 3: the growth control rate is greater than or equal to 40% and less than 60%) | 5 (Grade 5: the growth control rate is greater than or equal to 85%) | 3 (Grade 3: the growth control rate is greater than or equal to 40% and less than 60%) | 5 (Grade 5: the growth control rate is greater than or equal to 85%) | 5 (Grade 5: the growth control rate is greater than or equal to 85%) | 5 (Grade 5: the growth control rate is greater than or equal to 85%) | 208 to 210 |  |  |  |  |  |  |  |  |  |  |  |  |
| COc1ccc(C(=O)COc2cc(N3C(=O)C4=C(CCCC4)C3=O)c(F)cc2Cl)cc1 [Compound C13, 2-(4-chloro-2-fluoro-5-(2-oxo-2-(4-methoxyphenyl)ethoxy)phenyl)-4,5,6,7-tetrahydro-1H-isoindole-1,3(2H)-dione] | 4 (Grade 4: the growth control rate is greater than or equal to 60% and less than 85%) | 5 (Grade 5: the growth control rate is greater than or equal to 85%) | 3 (Grade 3: the growth control rate is greater than or equal to 40% and less than 60%) | 5 (Grade 5: the growth control rate is greater than or equal to 85%) | 5 (Grade 5: the growth control rate is greater than or equal to 85%) | 5 (Grade 5: the growth control rate is greater than or equal to 85%) | 151 to 153 | 2 (Grade 2: the growth control rate is greater than or equal to 20% and less than 40%) | 3 (Grade 3: the growth control rate is greater than or equal to 40% and less than 60%) | 5 (Grade 5: the growth control rate is greater than or equal to 85%) | 5 (Grade 5: the growth control rate is greater than or equal to 85%) | 1 (Grade 1: the growth control rate is greater than or equal to 5% and less than 20%) | 2 (Grade 2: the growth control rate is greater than or equal to 20% and less than 40%) | 5 (Grade 5: the growth control rate is greater than or equal to 85%) | 5 (Grade 5: the growth control rate is greater than or equal to 85%) | 5 (Grade 5: the growth control rate is greater than or equal to 85%) | 5 (Grade 5: the growth control rate is greater than or equal to 85%) | 5 (Grade 5: the growth control rate is greater than or equal to 85%) | 5 (Grade 5: the growth control rate is greater than or equal to 85%) |
| O=C(Nc1cc(N2C(=O)C3=C(CCCC3)C2=O)c(F)cc1Cl)C1CCCCC1 [Compound D10, N-(2-chloro-5-(1,3-dioxo-1,3,4,5,6,7-hexahydro-2H-isoindole-2-yl)-4-fluorophenyl)cyclohexanecarboxamide] | 4 (Grade 4: the growth control rate is greater than or equal to 60% and less than 85%) | 5 (Grade 5: the growth control rate is greater than or equal to 85%) | 3 (Grade 3: the growth control rate is greater than or equal to 40% and less than 60%) | 5 (Grade 5: the growth control rate is greater than or equal to 85%) | 5 (Grade 5: the growth control rate is greater than or equal to 85%) | 5 (Grade 5: the growth control rate is greater than or equal to 85%) | 93 to 97 |  |  |  |  |  |  |  |  |  |  |  |  |
| Cc1ccc(C(=O)COc2ccc(N3C(=O)C4=C(CCCC4)C3=O)c(F)c2)cc1 [Compound C15, 2-(2-fluoro-4-(2-oxo-2-(4-tolyl)ethoxy)phenyl)-4,5,6,7-tetrahydro-1H-isoindole-1,3(2H)-dione] | 4 (Grade 4: the growth control rate is greater than or equal to 60% and less than 85%) | 5 (Grade 5: the growth control rate is greater than or equal to 85%) | 3 (Grade 3: the growth control rate is greater than or equal to 40% and less than 60%) | 5 (Grade 5: the growth control rate is greater than or equal to 85%) | 5 (Grade 5: the growth control rate is greater than or equal to 85%) | 5 (Grade 5: the growth control rate is greater than or equal to 85%) | 144 to 146 | 2 (Grade 2: the growth control rate is greater than or equal to 20% and less than 40%) | 3 (Grade 3: the growth control rate is greater than or equal to 40% and less than 60%) | 5 (Grade 5: the growth control rate is greater than or equal to 85%) | 5 (Grade 5: the growth control rate is greater than or equal to 85%) | 1 (Grade 1: the growth control rate is greater than or equal to 5% and less than 20%) | 2 (Grade 2: the growth control rate is greater than or equal to 20% and less than 40%) | 5 (Grade 5: the growth control rate is greater than or equal to 85%) | 5 (Grade 5: the growth control rate is greater than or equal to 85%) | 5 (Grade 5: the growth control rate is greater than or equal to 85%) | 5 (Grade 5: the growth control rate is greater than or equal to 85%) | 5 (Grade 5: the growth control rate is greater than or equal to 85%) | 5 (Grade 5: the growth control rate is greater than or equal to 85%) |

From patent publication US20240300932A1, “N-PHENYLIMINE DERIVATIVE AND PREPARATION METHOD AND USE THEREOF” (Guizhou University, priority 2023, published 2024)
